Reference: patent US11083725B2 (priority 2014, dated 2021)

Tested on: NHBE cells
Assay: Biolog metabolic array: substrate use by NHBE cells with or without CA09 infection
Format: cell-based, human
Conditions: for Substrate use, 590 nm absorbance normalized to zero hour, 0 hr: Biolog PMM2, 0 hr; for Substrate use, 590 nm absorbance normalized to zero hour, 1 hr: Biolog PMM2, 1 hr; for Substrate use, 590 nm absorbance normalized to zero hour, 5 hr: Biolog PMM2, 5 hr; for Substrate use, 590 nm absorbance normalized to zero hour, 7 hr: Biolog PMM2, 7 hr
[1] = Control (uninfected) NHBE cells
[2] = Virus (CA09-infected NHBE cells, MOI 1)
[3] = Virus: CA09-infected NHBE cells, MOI 1, Biolog PMM2
[4] = Virus (CA09-infected, MOI 1) NHBE cells

SMILES | 590 nm absorbance normalized to zero hour (substrate use), 1 hr [1] | 590 nm absorbance normalized to zero hour (substrate use), 2 hr [1] | 590 nm absorbance normalized to zero hour (substrate use), 3 hr [1] | 590 nm absorbance normalized to zero hour (substrate use), 4 hr [1] | 590 nm absorbance normalized to zero hour (substrate use), 6 hr [1] | 590 nm absorbance normalized to zero hour (substrate use), 8 hr [1] | 590 nm absorbance normalized to zero hour (substrate use), 9 hr [1] | 590 nm absorbance normalized to zero hour (substrate use), 10 hr [1] | 590 nm absorbance normalized to zero hour (substrate use), 11 hr [1] | Substrate use, 590 nm absorbance normalized to zero hour, 1 hr [1] | Substrate use, 590 nm absorbance normalized to zero hour, 5 hr [1] | Substrate use, 590 nm absorbance normalized to zero hour, 7 hr [1] | 590 nm absorbance normalized to zero hour (substrate use), 1 hr [3] | 590 nm absorbance normalized to zero hour (substrate use), 2 hr [3] | 590 nm absorbance normalized to zero hour (substrate use), 3 hr [3] | 590 nm absorbance normalized to zero hour (substrate use), 4 hr [3] | 590 nm absorbance normalized to zero hour (substrate use), 5 hr [3] | 590 nm absorbance normalized to zero hour (substrate use), 6 hr [3] | 590 nm absorbance normalized to zero hour (substrate use), 7 hr [3] | 590 nm absorbance normalized to zero hour (substrate use), 8 hr [3] | other results
O[C@H]1[C@H](O)[C@@H](O)[C@H](O)[C@@H](O)[C@H]1O [m-Inositol] | 1.63 | 2.13 | 3.87 | 3.78 | 3.01 | 3.42 | 3.81 | 3.89 | 3.64 | 1.63 | 3.07 | 3.55 | 0.51 | 0.66 | 0.77 | 0.81 | 0.94 | 0.99 | 1.04 | 1.10 | 590 nm absorbance normalized to zero hour (substrate use), 0 hr [1]: 1.00; Substrate use, 590 nm absorbance normalized to zero hour, 0 hr [1]: 1.00; Substrate use, 590 nm absorbance normalized to zero hour, 11 hr (Control (uninfected) NHBE cells, Biolog PMM2, 11 hr): 4.22; 590 nm absorbance normalized to zero hour (substrate use), 0 hr [2]: 1.00; 590 nm absorbance normalized to zero hour (substrate use), 1 hr [2]: 0.51; 590 nm absorbance normalized to zero hour (substrate use), 2 hr [2]: 0.66; 590 nm absorbance normalized to zero hour (substrate use), 3 hr [2]: 0.77; 590 nm absorbance normalized to zero hour (substrate use), 4 hr [2]: 0.81; 590 nm absorbance normalized to zero hour (substrate use), 5 hr [2]: 0.94; 590 nm absorbance normalized to zero hour (substrate use), 6 hr [2]: 0.99; 590 nm absorbance normalized to zero hour (substrate use), 7 hr [2]: 1.04; 590 nm absorbance normalized to zero hour (substrate use), 8 hr [2]: 1.10; 590 nm absorbance normalized to zero hour (substrate use), 9 hr [2]: 1.20; 590 nm absorbance normalized to zero hour (substrate use), 10 hr [2]: 1.24; 590 nm absorbance normalized to zero hour (substrate use), 11 hr [2]: 1.34; 590 nm absorbance normalized to zero hour (substrate use), 0 hr [3]: 1.00; 590 nm absorbance normalized to zero hour (substrate use), 9 hr [3]: 1.20; 590 nm absorbance normalized to zero hour (substrate use), 10 hr [3]: 1.24; 590 nm absorbance normalized to zero hour (substrate use), 11 hr [3]: 1.34
Cc1cn([C@H]2C[C@H](O)[C@@H](CO)O2)c(=O)[nH]c1=O [Thymidine] | 1.65 | 1.61 | 1.67 | 1.64 | 0.92 | 0.62 | 1.52 | 1.43 | 0.81 | 1.65 | 1.75 | 0.61 | 1.52 | 2.29 | 2.27 | 2.32 | 2.34 | 2.33 | 2.34 | 2.26 | 590 nm absorbance normalized to zero hour (substrate use), 1 hr [4]: 1.52; 590 nm absorbance normalized to zero hour (substrate use), 2 hr [4]: 2.29; 590 nm absorbance normalized to zero hour (substrate use), 3 hr [4]: 2.27; 590 nm absorbance normalized to zero hour (substrate use), 4 hr [4]: 2.32; 590 nm absorbance normalized to zero hour (substrate use), 5 hr [4]: 2.34; 590 nm absorbance normalized to zero hour (substrate use), 6 hr [4]: 2.33; 590 nm absorbance normalized to zero hour (substrate use), 7 hr [4]: 2.34; 590 nm absorbance normalized to zero hour (substrate use), 8 hr [4]: 2.26; 590 nm absorbance normalized to zero hour (substrate use), 9 hr [4]: 2.28; 590 nm absorbance normalized to zero hour (substrate use), 10 hr [4]: 0.94; 590 nm absorbance normalized to zero hour (substrate use), 11 hr [4]: 2.21; 590 nm absorbance normalized to zero hour (substrate use), 9 hr [3]: 2.28; 590 nm absorbance normalized to zero hour (substrate use), 10 hr [3]: 0.94; 590 nm absorbance normalized to zero hour (substrate use), 11 hr [3]: 2.21
O=C(O)C(O)C(O)C(=O)O (stereo not drawn) [m-Tartaric Acid] | 1.39 | 1.72 | 2.14 | 2.16 | 3.24 | 2.82 | 2.95 | 2.65 | 2.75 | 1.39 | 2.42 | 2.70 | 1.50 | 1.66 | 1.90 | 1.96 | 2.05 | 2.17 | 2.23 | 2.28 | 590 nm absorbance normalized to zero hour (substrate use), 0 hr [1]: 1.00; Substrate use, 590 nm absorbance normalized to zero hour, 0 hr [1]: 1.00; 590 nm absorbance normalized to zero hour (substrate use), 0 hr [2]: 1.00; 590 nm absorbance normalized to zero hour (substrate use), 1 hr [2]: 1.50; 590 nm absorbance normalized to zero hour (substrate use), 2 hr [2]: 1.66; 590 nm absorbance normalized to zero hour (substrate use), 3 hr [2]: 1.90; 590 nm absorbance normalized to zero hour (substrate use), 4 hr [2]: 1.96; 590 nm absorbance normalized to zero hour (substrate use), 5 hr [2]: 2.05; 590 nm absorbance normalized to zero hour (substrate use), 6 hr [2]: 2.17; 590 nm absorbance normalized to zero hour (substrate use), 7 hr [2]: 2.23; 590 nm absorbance normalized to zero hour (substrate use), 8 hr [2]: 2.28; 590 nm absorbance normalized to zero hour (substrate use), 9 hr [2]: 2.43; 590 nm absorbance normalized to zero hour (substrate use), 10 hr [2]: 2.40; 590 nm absorbance normalized to zero hour (substrate use), 11 hr [2]: 2.41; 590 nm absorbance normalized to zero hour (substrate use), 0 hr [3]: 1.00; 590 nm absorbance normalized to zero hour (substrate use), 9 hr [3]: 2.43; 590 nm absorbance normalized to zero hour (substrate use), 10 hr [3]: 2.40; 590 nm absorbance normalized to zero hour (substrate use), 11 hr [3]: 2.41
